In patent US20220128542A1, “TREATMENT EFFICIENCY EVALUATION” (TX MEDIC AB, priority 2019, published 2022):

Test system: brain of rats subjected to closed-head diffuse severe TBI (sTBI)
Assay: HPLC of free amino acids and amino group containing compounds in brain, dose study after sTBI (Example 3)
Type: in vivo, rat
Source text: Male Wistar rats (n=160) of 300-350 g body weight were used in this study.
1994, 80: 291-300. This model causes diffuse axonal injury and it is able to reproduce the physical and mechanical characteristics of the diffuse TBI in humans.
Rats were placed prone on a bed of specific polyurethane foam inserted in a special container. This foam dissipates the major part of the potential energy (deriving from the mechanical forces) and prevents any rebound of the animal after the impact that could produce spinal damages.
These time points are coincident with the worst biochemical derangement (2 days) or, in the case of a mildly injured brain, with a full metabolic recovery (7 days).
The drug treatment consisted in a subcutaneous injection of 0.5 ml of LMW-DS (Tikomed) and administered at 3 different concentrations (1, 5 and 15 mg/kg body weight), according to the schematic protocol described below.
Sham-operated animals underwent the same procedure of anesthesia but TBI and were used as the control group.
Rats used in this study were divided into 4 groups in order to carry out a study on the efficacy of three different concentrations of LMW-DS at two different times post TBI. As subsequently specified, in each group there were animals subjected to a specific treatment for metabolic analyses and other animals intended to histo-morphological studies, according to the procedures described below.
Rats subjected to sTBI and receiving a single administration of LMW-DS after 30 minutes post-TBI, with sacrifice at 2 days post-TBI. Animals were divided in the following subgroups:
Rats subjected to sTBI and receiving a single administration of LMW-DS after 30 minutes post-TBI, with sacrifice at 7 days post-TBI. Animals were divided in the following subgroups:
Rats (n=12) subjected to sTBI and receiving repeated administrations of the maximal dose of LMW-DS (15 mg/kg b.w.) after 30 minutes, 3 days and 5 days post-TBI, with sacrifice at 7 days post-TBI. Four additional rats were used for the histo-morphological studies. Total rats in this group: n=16
To minimize metabolite loss, an in vivo craniectomy was performed in all animals during anesthesia. The rat skull was carefully removed, the brain was exposed, sharply cut along the sagittal fissure and the two hemispheres were separated. The hemispheres dedicated to biochemical analyses were freeze-clamped by aluminum tongues pre-cooled in liquid nitrogen and then immersed in liquid nitrogen. The freeze-clamping procedure was introduced to accelerate freezing of the tissue, thus minimizing potential metabolite loss.
Tissue homogenization for metabolite analyses was effected as described below. After the wet weight (w.w.) determination, the frozen hemispheres were placed into 7 ml of ice-cold, nitrogen-saturated, precipitating solution (1:10 w/v) composed by CH3CN+10 mM KH2PO4, pH 7.40, (3:1; v:v), and the homogenization was performed using an Ultra-Turrax homogenizer set at 24,000 rpm/min (Janke & Kunkel, Staufen, Germany). After centrifugation at 20,690×g, for 10 min at 4° C., the clear supernatants were saved, pellets were supplemented with an aliquot of 10 mM KH2PO4 and homogenized again as described above and saved overnight at −20° C. in order to obtain a complete recovery of aqueous phase from tissue. A second centrifugation was performed (20,690×g, for 10 min at 4° C.) and supernatants combined with those previously obtained were extracted by vigorous agitation with a double volume of HPLC-grade CHCl3 and centrifuged as above.

[1] = rats 2 days post-TBI, single 1 mg/kg b.w. 30 min after trauma
[2] = rats 2 days post-TBI, single 5 mg/kg b.w. 30 min after trauma
[3] = rats 2 days post-TBI, single 15 mg/kg b.w. 30 min after trauma
[4] = rats 7 days post-sTBI, repeated 15 mg/kg b.w.
[5] = rats 7 days post-sTBI, single 1 mg/kg b.w.
[6] = rats 7 days post-sTBI, single 5 mg/kg b.w.
[7] = rats 7 days post-sTBI, single 15 mg/kg b.w.

Substance: sodium salt of dextran sulfate [LMW-DS]
- isoleucine (ILE) (2 days post-TBI): restored
- osmolyte and aromatic free amino acids (2 days post-TBI): No remarkable effects
- methionine (2 days post-TBI, any dose tested): Restoration
- TAU concentrations (7 days after injury): normalized
- L-Cystathionine (L-Cystat) (7 days post impact, highest dose, single or repeat): significant increase
- GLU (7 days post injury, 15 mg/kg b.w. single or repeat): normalization
- ARG concentration in brain homogenate [1]: 0.13 ± 0.03 nmol/g w.w.
- ASN concentration in brain homogenate [1]: 0.13 ± 0.02 µmol/g w.w.
- ASP concentration in brain homogenate [1]: 4.17 ± 0.99 nmol/g w.w.
- GABA concentration in brain homogenate [1]: 1.87 ± 0.17 µmol/g w.w.
- GLN concentration in brain homogenate [1]: 4.37 ± 0.59 µmol/g w.w.
- GLU concentration in brain homogenate [1]: 12.5 ± 0.91 µmol/g w.w.
- GLY concentration in brain homogenate [1]: 1.35 ± 0.26 nmol/g w.w.
- LYS concentration in brain homogenate [1]: 0.29 ± 0.11 µmol/g w.w.
- MET concentration in brain homogenate [1]: 0.04 ± 0.01 µmol/g w.w.
- ORN concentration in brain homogenate [1]: 0.02 ± 0.01 µmol/g w.w.
- SAH concentration in brain homogenate [1]: 0.07 ± 0.02 nmol/g w.w.
- TAU concentration in brain homogenate [1]: 4.98 ± 0.47 nmol/g w.w.
- THR concentration in brain homogenate [1]: 0.70 ± 0.15 nmol/g w.w.
- TRP concentration in brain homogenate [1]: 0.02 ± 0.01 µmol/g w.w.
- TYR concentration in brain homogenate [1]: 0.18 ± 0.03 nmol/g w.w.
- VAL concentration in brain homogenate [1]: 0.07 ± 0.03 µmol/g w.w.
- ARG concentration in brain homogenate [2]: 0.13 ± 0.03 nmol/g w.w.
- ASP concentration in brain homogenate [2]: 4.15 ± 0.95 nmol/g w.w.
- GABA concentration in brain homogenate [2]: 1.99 ± 0.18 µmol/g w.w.
- GLN concentration in brain homogenate [2]: 4.55 ± 0.44 µmol/g w.w.
- GLY concentration in brain homogenate [2]: 1.43 ± 0.28 nmol/g w.w.
- L-Cystat concentration in brain homogenate [2]: 0.31 ± 0.06 µmol/g w.w.
- LYS concentration in brain homogenate [2]: 0.37 ± 0.14 µmol/g w.w.
- ORN concentration in brain homogenate [2]: 0.01 ± 0.01 µmol/g w.w.
- SAH concentration in brain homogenate [2]: 0.07 ± 0.02 nmol/g w.w.
- TAU concentration in brain homogenate [2]: 5.15 ± 0.49 nmol/g w.w.
- THR concentration in brain homogenate [2]: 0.77 ± 0.17 nmol/g w.w.
- TRP concentration in brain homogenate [2]: 0.03 ± 0.01 µmol/g w.w.
- TYR concentration in brain homogenate [2]: 0.20 ± 0.03 nmol/g w.w.
- VAL concentration in brain homogenate [2]: 0.08 ± 0.03 µmol/g w.w.
- ARG concentration in brain homogenate [3]: 0.16 ± 0.04 nmol/g w.w.
- ASP concentration in brain homogenate [3]: 3.05 ± 0.42 nmol/g w.w.
- GLN concentration in brain homogenate [3]: 4.21 ± 0.51 µmol/g w.w.
- GLY concentration in brain homogenate [3]: 1.18 ± 0.23 nmol/g w.w.
- LEU concentration in brain homogenate [3]: 0.04 ± 0.01 µmol/g w.w.
- LYS concentration in brain homogenate [3]: 0.32 ± 0.12 µmol/g w.w.
- MET concentration in brain homogenate [3]: 0.03 ± 0.01 µmol/g w.w.
- ORN concentration in brain homogenate [3]: 0.02 ± 0.01 µmol/g w.w.
- SAH concentration in brain homogenate [3]: 0.06 ± 0.02 nmol/g w.w.
- TAU concentration in brain homogenate [3]: 4.59 ± 0.43 nmol/g w.w.
- THR concentration in brain homogenate [3]: 0.61 ± 0.13 nmol/g w.w.
- TYR concentration in brain homogenate [3]: 0.17 ± 0.03 nmol/g w.w.
- VAL concentration in brain homogenate [3]: 0.06 ± 0.03 µmol/g w.w.
- ALA concentration in brain homogenate [4]: 0.47 ± 0.05 µmol/g w.w.
- ASN concentration in brain homogenate [4]: 0.1 ± 0.02 µmol/g w.w.
- ASP concentration in brain homogenate [4]: 2.42 ± 0.39 nmol/g w.w.
- CITR concentration in brain homogenate [4]: 0.03 ± 0.01 µmol/g w.w.
- GABA concentration in brain homogenate [4]: 1.38 ± 0.14 µmol/g w.w.
- GLN concentration in brain homogenate [4]: 3.88 ± 0.4 µmol/g w.w.
- GLY concentration in brain homogenate [4]: 0.78 ± 0.10 nmol/g w.w.
- HYS concentration in brain homogenate [4]: 0.06 ± 0.01 µmol/g w.w.
- ILE concentration in brain homogenate [4]: 0.03 ± 0.01 µmol/g w.w.
- LEU concentration in brain homogenate [4]: 0.04 ± 0.01 µmol/g w.w.
- LYS concentration in brain homogenate [4]: 0.23 ± 0.07 µmol/g w.w.
- ORN concentration in brain homogenate [4]: 0.02 ± 0.01 µmol/g w.w.
- SAH concentration in brain homogenate [4]: 0.04 ± 0.04 nmol/g w.w.
- TAU concentration in brain homogenate [4]: 3.47 ± 0.44 nmol/g w.w.
- THR concentration in brain homogenate [4]: 0.77 ± 0.14 nmol/g w.w.
- TYR concentration in brain homogenate [4]: 0.14 ± 0.02 nmol/g w.w.
- VAL concentration in brain homogenate [4]: 0.07 ± 0.01 µmol/g w.w.
- ALA concentration in brain homogenate [5]: 0.57 ± 0.06 µmol/g w.w.
- ARG concentration in brain homogenate [5]: 0.13 ± 0.02 nmol/g w.w.
- ASN concentration in brain homogenate [5]: 0.1 ± 0.02 µmol/g w.w.
- ASP concentration in brain homogenate [5]: 4.17 ± 0.67 nmol/g w.w.
- CITR concentration in brain homogenate [5]: 0.03 ± 0.01 µmol/g w.w.
- GABA concentration in brain homogenate [5]: 1.73 ± 0.18 µmol/g w.w.
- GLN concentration in brain homogenate [5]: 4.1 ± 0.42 µmol/g w.w.
- GLU concentration in brain homogenate [5]: 12.1 ± 1.02 µmol/g w.w.
- GLY concentration in brain homogenate [5]: 0.98 ± 0.20 nmol/g w.w.
- HYS concentration in brain homogenate [5]: 0.06 ± 0.01 µmol/g w.w.
- L-Cystat concentration in brain homogenate [5]: 0.24 ± 0.04 µmol/g w.w.
- LYS concentration in brain homogenate [5]: 0.19 ± 0.06 µmol/g w.w.
- MET concentration in brain homogenate [5]: 0.03 ± 0.01 µmol/g w.w.
- ORN concentration in brain homogenate [5]: 0.01 ± 0.01 µmol/g w.w.
- SAH concentration in brain homogenate [5]: 0.04 ± 0.01 nmol/g w.w.
- SER concentration in brain homogenate [5]: 0.92 ± 0.16 µmol/g w.w.
- TAU concentration in brain homogenate [5]: 4.02 ± 0.51 nmol/g w.w.
- THR concentration in brain homogenate [5]: 0.71 ± 0.12 nmol/g w.w.
- TYR concentration in brain homogenate [5]: 0.13 ± 0.02 nmol/g w.w.
- VAL concentration in brain homogenate [5]: 0.08 ± 0.01 µmol/g w.w.
- ALA concentration in brain homogenate [6]: 0.44 ± 0.05 µmol/g w.w.
- ARG concentration in brain homogenate [6]: 0.15 ± 0.02 nmol/g w.w.
- ASN concentration in brain homogenate [6]: 0.1 ± 0.02 µmol/g w.w.
- ASP concentration in brain homogenate [6]: 3.63 ± 0.59 nmol/g w.w.
- CITR concentration in brain homogenate [6]: 0.03 ± 0.01 µmol/g w.w.
- GLN concentration in brain homogenate [6]: 3.86 ± 0.4 µmol/g w.w.
- GLU concentration in brain homogenate [6]: 11.8 ± 0.99 µmol/g w.w.
- GLY concentration in brain homogenate [6]: 0.88 ± 0.15 nmol/g w.w.
- HYS concentration in brain homogenate [6]: 0.06 ± 0.01 µmol/g w.w.
- L-Cystat concentration in brain homogenate [6]: 0.26 ± 0.04 µmol/g w.w.
- LYS concentration in brain homogenate [6]: 0.21 ± 0.04 µmol/g w.w.
- MET concentration in brain homogenate [6]: 0.04 ± 0.01 µmol/g w.w.
- TAU concentration in brain homogenate [6]: 3.51 ± 0.44 nmol/g w.w.
- THR concentration in brain homogenate [6]: 0.71 ± 0.15 nmol/g w.w.
- TRP concentration in brain homogenate [6]: 0.02 ± 0.01 µmol/g w.w.
- TYR concentration in brain homogenate [6]: 0.13 ± 0.02 nmol/g w.w.
- VAL concentration in brain homogenate [6]: 0.08 ± 0.01 µmol/g w.w.
- ALA concentration in brain homogenate [7]: 0.38 ± 0.04 µmol/g w.w.
- ARG concentration in brain homogenate [7]: 0.14 ± 0.02 nmol/g w.w.
- ASN concentration in brain homogenate [7]: 0.1 ± 0.02 µmol/g w.w.
- CITR concentration in brain homogenate [7]: 0.03 ± 0.01 µmol/g w.w.
- GABA concentration in brain homogenate [7]: 1.43 ± 0.15 µmol/g w.w.
- GLN concentration in brain homogenate [7]: 3.73 ± 0.38 µmol/g w.w.
- GLU concentration in brain homogenate [7]: 10.2 ± 0.86 µmol/g w.w.
- GLY concentration in brain homogenate [7]: 0.78 ± 0.12 nmol/g w.w.
- HYS concentration in brain homogenate [7]: 0.06 ± 0.01 µmol/g w.w.
- L-Cystat concentration in brain homogenate [7]: 0.25 ± 0.04 µmol/g w.w.
- LYS concentration in brain homogenate [7]: 0.21 µmol/g w.w.
- MET concentration in brain homogenate [7]: 0.04 ± 0.01 µmol/g w.w.
- SAH concentration in brain homogenate [7]: 0.04 ± 0.01 nmol/g w.w.
- SER concentration in brain homogenate [7]: 0.76 ± 0.12 µmol/g w.w.
- TAU concentration in brain homogenate [7]: 3.38 ± 0.44 nmol/g w.w.
- THR concentration in brain homogenate [7]: 0.72 ± 0.14 nmol/g w.w.
- TYR concentration in brain homogenate [7]: 0.14 ± 0.02 nmol/g w.w.
